#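 How tested: cells in 96-well plates exposed to compound for 48 hours at five concentrations. Here, GI50 denotes the concentration required for 50% inhibition of growth. At the TGI there is no net growth.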
# How the values were obtained:
# Experiment in all cases: inhibition of tumour cell growth, NCI panel, 48 h
# A498 renal = test system: A498 renal
# HOP-92 NSCLC = test system: HOP-92 NSCLC
# IGROV1 ovarian = test system: IGROV1 ovarian
# MDA-MB-231 breast = test system: MDA-MB-231 breast
# NCI-H460 lung = test system: NCI-H460 lung
# RPMI-8226 leukemia = test system: RPMI-8226 leukemia
# RXF 393 renal = test system: RXF 393 renal
# SNB-75 CNS = test system: SNB-75 CNS
# TK-10 renal = test system: TK-10 renal
# UACC-62 melanoma = test system: UACC-62 melanoma
Structure (SMILES),GI50 (A498 renal),TGI (A498 renal),GI50 (HOP-92 NSCLC),TGI (HOP-92 NSCLC),GI50 (IGROV1 ovarian),TGI (IGROV1 ovarian),GI50 (MDA-MB-231 breast),TGI (MDA-MB-231 breast),GI50 (NCI-H460 lung),TGI (NCI-H460 lung),GI50 (RPMI-8226 leukemia),TGI (RPMI-8226 leukemia),GI50 (RXF 393 renal),TGI (RXF 393 renal),GI50 (SNB-75 CNS),TGI (SNB-75 CNS),GI50 (TK-10 renal),TGI (TK-10 renal),GI50 (UACC-62 melanoma),TGI (UACC-62 melanoma)
Fc1ccc2c(c1)C1=NN(c3ccccc3)C(F)C1CO2 (configuration not stated),11.4 µM,21 µM,9550 nM,23.7 µM,15.2 µM,> 50 µM,5.36 µM,13.6 µM,10.5 µM,> 50 µM,9040 nM,33.4 µM,7330 nM,41.4 µM,9.01 µM,32 µM,12500 nM,35.6 µM,6.43 µM,14 µM
COc1cc(C(=O)O[C@H](C(=O)NCCCCCNC(=O)[C@@H](OC(=O)c2cc(OC)cc3c(C)cccc23)[C@]2(C)CO2)[C@]2(C)CO2)c2cccc(C)c2c1,1.33 µM,5.25 µM,292 nM,0.867 µM,1.43 µM,> 100 µM,0.893 µM,4.03 µM,–,0.675 µM,1820 nM,10.2 µM,< 10 nM,0.025 µM,0.911 µM,3.43 µM,661 nM,2.37 µM,0.53 µM,1.08 µM
Nc1c(C(=O)c2cccc(-c3ccncc3)c2)cnn1-c1ccc(F)cc1F,4.65 µM,> 25 µM,4710 nM,> 22.9 µM,9.98 µM,> 25 µM,15.2 µM,> 25 µM,5.2 µM,> 25 µM,6160 nM,> 25 µM,8750 nM,> 25 µM,4.99 µM,> 25 µM,> 15000 nM,> 25 µM,5.34 µM,> 25 µM
COc1c(C)c2c(c(O)c1C/C=C(\C)CCC(=O)O)C(=O)OC2,0.42 µM,> 100 µM,959 nM,> 100 µM,0.253 µM,> 100 µM,0.956 µM,> 100 µM,0.116 µM,> 100 µM,518 nM,> 100 µM,604 nM,> 100 µM,0.938 µM,> 100 µM,1680 nM,> 100 µM,0.444 µM,> 100 µM
COc1cc(/C=C/C(=O)c2cccc(Nc3nc(Nc4ccccc4)nc(Nc4ccccc4)n3)c2)cc(OC)c1OC,7.47 µM,> 49.9 µM,1360 nM,> 31.2 µM,3.22 µM,> 100 µM,11.7 µM,> 100 µM,2.05 µM,20.9 µM,530 nM,4.58 µM,1600 nM,11.1 µM,16 µM,> 100 µM,63900 nM,> 100 µM,43.8 µM,> 100 µM
COc1ccc(C2=CC(c3ccc4c(c3)OCO4)c3c(c4ccccc4oc3=O)O2)cc1OC (configuration not stated),–,> 100 µM,–,> 100 µM,–,> 100 µM,–,> 100 µM,–,> 100 µM,–,> 65.3 µM,–,> 100 µM,–,> 21.4 µM,–,> 100 µM,–,> 100 µM
C=C(C)C(=O)Nc1ccc(NC(C)C)cc1,> 100 µM,> 100 µM,> 100000 nM,> 100 µM,> 100 µM,> 100 µM,> 100 µM,> 100 µM,> 100 µM,> 100 µM,> 100000 nM,> 100 µM,> 100000 nM,> 100 µM,> 100 µM,> 100 µM,> 100000 nM,> 100 µM,> 100 µM,> 100 µM
c1ccc2[nH]c(-c3ccc(-c4nccc5c4[nH]c4ccccc45)cc3)nc2c1,11.4 µM,25.5 µM,2060 nM,5.79 µM,4.73 µM,22.4 µM,2.39 µM,5.83 µM,3.03 µM,9.79 µM,2480 nM,5.61 µM,1930 nM,3.53 µM,1.57 µM,4.07 µM,2070 nM,4.59 µM,1.6 µM,3.49 µM
Cc1cc(O)c(C(C)C)cc1S(=O)(=O)O (tested in a mixture with another compound),0.244 µM,2.16 µM,188 nM,1.66 µM,0.554 µM,–,0.377 µM,1.65 µM,0.347 µM,–,357 nM,–,213 nM,–,0.378 µM,–,1220 nM,–,0.566 µM,–
O=C(O)C(/C=C/c1ccccc1)c1ccccc1 (configuration not stated),–,> 100 µM,–,> 100 µM,–,> 100 µM,–,> 100 µM,–,> 100 µM,–,> 100 µM,–,> 100 µM,–,> 100 µM,–,> 100 µM,–,> 100 µM
CN(C)CCN1C(=O)c2ccccc2N(C)c2ccccc21,> 100 µM,> 100 µM,> 100000 nM,> 100 µM,> 100 µM,> 100 µM,> 100 µM,> 100 µM,> 100 µM,> 100 µM,> 100000 nM,> 100 µM,> 100000 nM,> 100 µM,> 100 µM,> 100 µM,> 100000 nM,> 100 µM,> 100 µM,> 100 µM

# Reference: PubChem BioAssay (NCI)
